Measurements taken from patent publication US9179694B2, “Method and composition for enhancing milk production and milk component concentrations” (PURINA ANIMAL NUTRITION LLC, priority 2003, dated 2015).
Marks after values point to notes of the source that are not given here.

Test: Lactose content of produced milk in sorbitol feeding trials
Assay type: in vivo, Holstein cows
Conditions: for Lactose in Produced Milk: Pre-Partum Trial #1 (75/0/0 g/day in wk −3..−1/+1..+4/+5..+8)
Experimental: To determine the weight percent lactose, wet basis, in a liquid sample, the weight of the liquid sample is first determined. The actual weight of lactose in the liquid sample may then be determined using analysis kit number 176-303, that is available from Boehringer-Mannheim of Indianapolis, Ind. in accordance with the procedural instructions included with analysis kit number 176-303. The weight percent lactose, wet basis, in the liquid sample is then calculated by dividing the actual weight of lactose in the liquid sample by the actual weight of the liquid sample. Each cow of each of the six different trials (Control Trial #1, Control Trial #2, Pre-Partum Trial #1, Pre-Partum Trial #2, Pre/Post Trial #1, and Pre/Post Trial #2) was milked three times daily and the weight of produced milk by each cow was recorded at each milking. The milk from each cow was sampled once per week (⅓ of the sample volume from each of the three milkings occurring on the weekly milk sampling day) and was analyzed for true protein, total fat, lactose, and total solids, as detailed in the property determination and characterization techniques presented above. Additionally, samples of blood were periodically obtained from each cow during the four trials (Control Trial 2, Pre-Partum Trial #2, Pre/Post Trial #1, and Pre/Post Trial #2) encompassed in Example Two and were analyzed for non-esterified fatty acid (NEFA) content as detailed in the property determination and characterization techniques presented above. No NEFA analysis was conducted on the cows employed in Control Trial #1 or Pre-Partum Trial #1 that are the subject of Example One. Example One includes Control Trial #1 and Pre-Partum Trial #1. Both primiparious cows and multiparious cows were included in Control Trial #1 and Pre-Partum Trial #1. Five primiparious cows and fifteen multiparious cows were included in Control Trial #1; likewise, five primiparious cows and fifteen multiparious cows were included in Pre-Partum Trial #1. All cows included in Control Trial #1 and Pre-Partum Trial #1 were Holsteins. Example Two includes Control Trial #2, Pre-Partum Trial #2, Pre/Post Trial #1, and Pre/Post Trial #2. Only multiparious, Holstein cows were included in Control Trial #2, Pre-Partum Trial #1, Pre/Post Trial #1, and Pre/Post Trial #2. Eighteen multiparious cows were included in both Control Trial #2 and Pre-Partum Trial #2, while sixteen multiparious cows were included in Pre/Post Trial #1 and seventeen multiparious cows were included in Pre/Post Trial #2.

OC[C@@H](O)[C@@H](O)[C@H](O)[C@@H](O)CO [sorbitol]
Lactose in Produced Milk (multiparious cows, weeks +1 through +8): 4.77 wt % | Lactose in Produced Milk (primiparious cows, weeks +1 through +8): 4.98 wt % | increase in lactose concentration in the produced milk (Pre-Partum Trial #1 (75 g/day wk −3..−1 only) versus Control Trial #1, primiparious cows, weeks +1 through +8): 5.1% | Lactose Content of Produced Milk (Pre-Partum Trial #2 (75/0/100 g/day in wk −3..−1/+1..+4/+5..+8), multiparious cows, week +1): 4.42 weight % | Lactose Content of Produced Milk (Pre-Partum Trial #2 (75/0/100 g/day in wk −3..−1/+1..+4/+5..+8), multiparious cows, week +2): 4.69^a weight % | Lactose Content of Produced Milk (Pre-Partum Trial #2 (75/0/100 g/day in wk −3..−1/+1..+4/+5..+8), multiparious cows, week +3): 4.74^a weight % | Lactose Content of Produced Milk (Pre-Partum Trial #2 (75/0/100 g/day in wk −3..−1/+1..+4/+5..+8), multiparious cows, week +4): 4.75^a weight % | Lactose Content of Produced Milk (Pre-Partum Trial #2 (75/0/100 g/day in wk −3..−1/+1..+4/+5..+8), multiparious cows, week +5): 4.74^a weight % | Lactose Content of Produced Milk (Pre-Partum Trial #2 (75/0/100 g/day in wk −3..−1/+1..+4/+5..+8), multiparious cows, week +6): 4.75^a weight % | Lactose Content of Produced Milk (Pre-Partum Trial #2 (75/0/100 g/day in wk −3..−1/+1..+4/+5..+8), multiparious cows, week +7): 4.77^a weight % | Lactose Content of Produced Milk (Pre-Partum Trial #2 (75/0/100 g/day in wk −3..−1/+1..+4/+5..+8), multiparious cows, week +8): 4.76^a weight % | Lactose Content of Produced Milk (Pre-Partum Trial #2 (75/0/100 g/day in wk −3..−1/+1..+4/+5..+8), multiparious cows, weeks +1 through +4): 4.65 weight % | Lactose Content of Produced Milk (Pre-Partum Trial #2 (75/0/100 g/day in wk −3..−1/+1..+4/+5..+8), multiparious cows, weeks +5 through +8): 4.76^a weight % | Lactose Content of Produced Milk (Pre/Post Trial #1 (150/125/100 g/day in wk −3..−1/+1..+4/+5..+8), multiparious cows, week +1): 4.55 weight % | Lactose Content of Produced Milk (Pre/Post Trial #1 (150/125/100 g/day in wk −3..−1/+1..+4/+5..+8), multiparious cows, week +1, two-trial comparison with Control Trial #2 (Table 25)): 4.55 weight % | Lactose Content of Produced Milk (Pre/Post Trial #1 (150/125/100 g/day in wk −3..−1/+1..+4/+5..+8), multiparious cows, week +2): 4.79^ab weight % | Lactose Content of Produced Milk (Pre/Post Trial #1 (150/125/100 g/day in wk −3..−1/+1..+4/+5..+8), multiparious cows, week +2, two-trial comparison with Control Trial #2 (Table 25)): 4.79 weight % | Lactose Content of Produced Milk (Pre/Post Trial #1 (150/125/100 g/day in wk −3..−1/+1..+4/+5..+8), multiparious cows, week +3): 4.87^ab weight % | Lactose Content of Produced Milk (Pre/Post Trial #1 (150/125/100 g/day in wk −3..−1/+1..+4/+5..+8), multiparious cows, week +3, two-trial comparison with Control Trial #2 (Table 25)): 4.87 weight % | Lactose Content of Produced Milk (Pre/Post Trial #1 (150/125/100 g/day in wk −3..−1/+1..+4/+5..+8), multiparious cows, week +4): 4.90^b weight % | Lactose Content of Produced Milk (Pre/Post Trial #1 (150/125/100 g/day in wk −3..−1/+1..+4/+5..+8), multiparious cows, week +4, two-trial comparison with Control Trial #2 (Table 25)): 4.90 weight % | Lactose Content of Produced Milk (Pre/Post Trial #1 (150/125/100 g/day in wk −3..−1/+1..+4/+5..+8), multiparious cows, week +5): 4.93^c weight % | Lactose Content of Produced Milk (Pre/Post Trial #1 (150/125/100 g/day in wk −3..−1/+1..+4/+5..+8), multiparious cows, week +5, two-trial comparison with Control Trial #2 (Table 25)): 4.93 weight % | Lactose Content of Produced Milk (Pre/Post Trial #1 (150/125/100 g/day in wk −3..−1/+1..+4/+5..+8), multiparious cows, week +6): 4.90^ab weight % | Lactose Content of Produced Milk (Pre/Post Trial #1 (150/125/100 g/day in wk −3..−1/+1..+4/+5..+8), multiparious cows, week +6, two-trial comparison with Control Trial #2 (Table 25)): 4.90 weight % | Lactose Content of Produced Milk (Pre/Post Trial #1 (150/125/100 g/day in wk −3..−1/+1..+4/+5..+8), multiparious cows, week +7): 4.90^ab weight % | Lactose Content of Produced Milk (Pre/Post Trial #1 (150/125/100 g/day in wk −3..−1/+1..+4/+5..+8), multiparious cows, week +7, two-trial comparison with Control Trial #2 (Table 25)): 4.90 weight % | Lactose Content of Produced Milk (Pre/Post Trial #1 (150/125/100 g/day in wk −3..−1/+1..+4/+5..+8), multiparious cows, week +8): 4.84^ab weight % | Lactose Content of Produced Milk (Pre/Post Trial #1 (150/125/100 g/day in wk −3..−1/+1..+4/+5..+8), multiparious cows, week +8, two-trial comparison with Control Trial #2 (Table 25)): 4.84 weight % | Lactose Content of Produced Milk (Pre/Post Trial #1 (150/125/100 g/day in wk −3..−1/+1..+4/+5..+8), multiparious cows, weeks +1 through +4): 4.78 weight % | Lactose Content of Produced Milk (Pre/Post Trial #1 (150/125/100 g/day in wk −3..−1/+1..+4/+5..+8), multiparious cows, weeks +1 through +4, two-trial comparison with Control Trial #2 (Table 25)): 4.78 weight % | Lactose Content of Produced Milk (Pre/Post Trial #1 (150/125/100 g/day in wk −3..−1/+1..+4/+5..+8), multiparious cows, weeks +1 through +8): 4.83^ab weight % | Lactose Content of Produced Milk (Pre/Post Trial #1 (150/125/100 g/day in wk −3..−1/+1..+4/+5..+8), multiparious cows, weeks +1 through +8, two-trial comparison with Control Trial #2 (Table 25)): 4.83 weight % | Lactose Content of Produced Milk (Pre/Post Trial #1 (150/125/100 g/day in wk −3..−1/+1..+4/+5..+8), multiparious cows, weeks +5 through +8): 4.89^ab weight % | Lactose Content of Produced Milk (Pre/Post Trial #1 (150/125/100 g/day in wk −3..−1/+1..+4/+5..+8), multiparious cows, weeks +5 through +8, two-trial comparison with Control Trial #2 (Table 25)): 4.89 weight % | increase in lactose concentration in milk (Pre/Post Trial #1 (150/125/100 g/day) versus Control Trial #2, multiparious cows, weeks +1 through +4 (Table 25)): more than 2.5% | increase in lactose concentration in milk (Pre/Post Trial #1 (150/125/100 g/day) versus Control Trial #2, multiparious cows, weeks +1 through +8 (Table 25)): 1.9% | increase in lactose concentration in milk (Pre/Post Trial #1 (150/125/100 g/day) versus Control Trial #2, multiparious cows, weeks +5 through +8 (Table 25)): more than 2.5% | Lactose Content of Produced Milk (Pre/Post Trial #2 (75/75/100 g/day in wk −3..−1/+1..+4/+5..+8), multiparious cows, week +1): 4.47 weight % | Lactose Content of Produced Milk (Pre/Post Trial #2 (75/75/100 g/day in wk −3..−1/+1..+4/+5..+8), multiparious cows, week +2): 4.84^b weight % | Lactose Content of Produced Milk (Pre/Post Trial #2 (75/75/100 g/day in wk −3..−1/+1..+4/+5..+8), multiparious cows, week +3): 4.92^b weight % | Lactose Content of Produced Milk (Pre/Post Trial #2 (75/75/100 g/day in wk −3..−1/+1..+4/+5..+8), multiparious cows, week +4): 4.90^b weight % | Lactose Content of Produced Milk (Pre/Post Trial #2 (75/75/100 g/day in wk −3..−1/+1..+4/+5..+8), multiparious cows, week +5): 4.90^bc weight % | Lactose Content of Produced Milk (Pre/Post Trial #2 (75/75/100 g/day in wk −3..−1/+1..+4/+5..+8), multiparious cows, week +6): 4.92^b weight % | Lactose Content of Produced Milk (Pre/Post Trial #2 (75/75/100 g/day in wk −3..−1/+1..+4/+5..+8), multiparious cows, week +7): 4.96^b weight % | Lactose Content of Produced Milk (Pre/Post Trial #2 (75/75/100 g/day in wk −3..−1/+1..+4/+5..+8), multiparious cows, week +8): 4.93^b weight % | Lactose Content of Produced Milk (Pre/Post Trial #2 (75/75/100 g/day in wk −3..−1/+1..+4/+5..+8), multiparious cows, weeks +1 through +4): 4.78 weight % | Lactose Content of Produced Milk (Pre/Post Trial #2 (75/75/100 g/day in wk −3..−1/+1..+4/+5..+8), multiparious cows, weeks +1 through +8): 4.85^b weight % | greater lactose concentration in milk (Pre/Post Trial #2 (75/75/100 g/day) versus Pre-Partum Trial #2 (75/0/100 g/day), multiparious cows, weeks +1 through +8): 3.0% | increase in lactose concentration in milk (average of means of Pre-Partum Trial #2, Pre/Post Trial #1 and Pre/Post Trial #2 versus Control Trial #2, multiparious cows, weeks +1 through +4): 1.7% | increase in lactose concentration in milk (average of means of Pre-Partum Trial #2, Pre/Post Trial #1 and Pre/Post Trial #2 versus Control Trial #2, multiparious cows, weeks +1 through +8): 1.6%
